This assay relates to MCH receptors. Put plainly: MCH receptor activity class (method not given).
[1] abbreviates: MCH receptor, class by percent of control at 10^-7 M or IC50.
Setting [2] is: class by percent of control at 10^-7 M or IC50.
[3] abbreviates: class by percent of control at 10^−7 M or IC50.
The mark [4] stands for this setting: MCH receptor activity class 1-3 (percent of control at 10^-7 M or IC50).
[5] abbreviates: class 1-3 by percent of control at 10^-7 M or IC50.
The mark [6] stands for this setting: activity class 1-3: percent of control at 10^-7 M or IC50.

For the molecule `Cc1ccc(CCNC(=S)N[C@H]2CC[C@@H](Nc3nc4c(c(N(C)C)n3)CCCC4)CC2)cc1` [compound 2052], the class under setting [1] is listed as 3 (Class 3 The value of percent of control at 10^−7 M was more than 60% or the value of IC50 was more than 200 nM.).
Take `CN(C)c1nc(N[C@H]2CC[C@@H](CNC(=O)/C=C/c3ccc([N+](=O)[O-])cc3)CC2)nc2c1CCCC2` [compound 641]: the class under setting [2] was 2 (Class 2: The value of percent of control at 10^−7 M was from 40% to 60% or the value of IC′50 was from 50 nM to 200 nM.).
On the same count and under the same terms, then `CN(C)c1nc(N[C@H]2CC[C@@H](NC(=O)Nc3ccc(Cl)cc3[N+](=O)[O-])CC2)nc2c1CCCC2` [compound 1886], with 3 (Class 3 The value of percent of control at 10^−7 M was more than 60% or the value of IC50 was more than 200 nM.).
Consider `CCOc1cc(OCC)cc(C(=O)N[C@H]2CC[C@@H](Nc3nc(C)c(C)c(N(C)C)n3)CC2)c1` [compound 2860], for which, under setting [3], the class is on record as 1 (Class 1: The value of percent of control at 10^−7 M was less than 40% or the value of IC50 was less than 50 nM.).
As to `CN(C)c1cc(N[C@H]2CC[C@@H](NC(=O)C(CC(=O)c3ccc(Br)cc3)c3c[nH]c4ccccc34)CC2)nc2ccccc12` (relative stereo) [compound 717], the class under setting [2] was 3 (Class 3 The value of percent of control at 10^−7 M was more than 60% or the value of IC50 was more than 200 nM.).
With `Cc1ccc(CNC(=S)N[C@H]2CC[C@@H](Nc3nc4c(c(N(C)C)n3)CCCC4)CC2)cc1` [compound 2021], the class under setting [1] was 3 (Class 3 The value of percent of control at 10^−7 M was more than 60% or the value of IC50 was more than 200 nM.).
For `CN(C)c1cc(N[C@H]2CC[C@@H](CNC(=O)Nc3c(F)cc(Br)cc3Br)CC2)nc2ccccc12` [compound 2371, N-(2,4-dibromo-6-fluorophenyl)-N′-[(cis-4-{[4-(dimethylamino)quinolin-2-yl]amino}cyclohexyl)methyl]urea], the class under setting [4] is 1 (Class 1: The value of percent of control at 10^−7 M was less than 40% or the value of IC50 was less than 50 nM.).
As to `CN(C)c1nc(N[C@H]2CC[C@@H](CNC(=O)c3cc(C(F)(F)F)ccc3F)CC2)nc2c1CCCC2` [compound 627], the class under setting [2] was 3 (Class 3 The value of percent of control at 10^−7 M was more than 60% or the value of IC50 was more than 200 nM.).
`CN(C)c1ccnc(N[C@H]2CC[C@@H](CNC(=O)Nc3c(F)cc(Br)cc3F)CC2)n1` [compound 2432]: the class under setting [4] is 1 (Class 1: The value of percent of control at 10^−7 M was less than 40% or the value of IC50 was less than 50 nM.).
Take `Cc1ccnc(SCC(=O)N[C@H]2CC[C@@H](Nc3nccc(N(C)C)n3)CC2)n1` [compound 835]: the class under setting [2] is on record as 3 (Class 3 The value of percent of control at 10^−7 M was more than 60% or the value of IC50 was more than 200 nM.).
For `CN(C)c1ccnc(N[C@H]2CC[C@@H](NC(=S)Nc3ccc4c(c3)OCCO4)CC2)n1` [compound 2349], the class under setting [4] is reported as 3 (Class 3 The value of percent of control at 10^−7 M was more than 60% or the value of IC50 was more than 200 nM.).
Take `COc1ccc([C@H](C)NC(=O)[C@H]2CC[C@@H](Nc3nc(C)cc(N(C)C)n3)CC2)cc1` [compound 2802, cis-4-{[4-(dimethylamino)-6-methylpyrimidin-2-yl]amino}-N-[(1S)-1-(4-methoxyphenyl)ethyl]cyclohexanecarboxamide]: the class under setting [3] is listed as 1 (Class 1: The value of percent of control at 10^−7 M was less than 40% or the value of IC50 was less than 50 nM.).
Regarding `CN(C)c1ccnc(N[C@H]2CC[C@@H](NC(=O)/C=C/c3ccccc3)CC2)n1` [compound 244], the class under setting [2] was 3 (Class 3 The value of percent of control at 10^−7 M was more than 60% or the value of IC50 was more than 200 nM.).
Regarding `Cc1cnc(N[C@H]2CC[C@@H](NC(=O)N(C)c3cccc(F)c3)CC2)nc1N(C)C` [compound 3025, N′-(cis-4-{[4-(dimethylamino)-5-methylpyrimidin-2-yl]amino}cyclohexyl)-N-(3-fluorophenyl)-N-methylurea], under setting [3], the class was 1 (Class 1: The value of percent of control at 10^−7 M was less than 40% or the value of IC50 was less than 50 nM.).
For the molecule `Cc1ccc(NC(=S)N[C@H]2CC[C@@H](Nc3cc(N(C)C)c4ccccc4n3)CC2)c(C)c1` [compound 2276], under setting [2], the class was 3 (Class 3 The value of percent of control at 10^−7 M was more than 60% or the value of IC50 was more than 200 nM.).
The same measure, in the same setting: under `CC(NC(=O)N[C@H]1CC[C@@H](Nc2cc(N(C)C)c3ccccc3n2)CC1)c1ccccc1` (relative stereo) [compound 2136] stands 3 (Class 3 The value of percent of control at 10^−7 M was more than 60% or the value of IC50 was more than 200 nM.).
Regarding `CN(C)c1nc(N[C@H]2CC[C@@H](NC(=O)c3cc(F)cc(F)c3)CC2)nc2c1CCCC2` [compound 470], the class under setting [5] was 1 (Class 1: The value of percent of control at 10^−7 M was less than 40% or the value of IC50 was less than 50 nM.).
Take `Cc1cnc(N[C@H]2CC[C@@H](NC(=O)c3cccnc3Oc3ccc(I)cc3)CC2)nc1N(C)C` [compound 2889, N-(cis-4-{[4-(dimethylamino)-5-methylpyrimidin-2-yl]amino}cyclohexyl)-2-(4-iodophenoxy)nicotinamide]: the class under setting [3] is 1 (Class 1: The value of percent of control at 10^−7 M was less than 40% or the value of IC50 was less than 50 nM.).
In the case of `CN(C)c1ccnc(N[C@H]2CC[C@@H](CNC(=O)c3cccc(C#N)c3)CC2)n1` [compound 374], the class under setting [2] is 3 (Class 3 The value of percent of control at 10^−7 M was more than 60% or the value of IC50 was more than 200 nM.).
With `CCc1ccccc1NC(=O)N[C@H]1CC[C@@H](Nc2nc3c(c(N(C)C)n2)CCCC3)CC1` [compound 1677], under setting [6], the class is on record as 2 (Class 2: The value of percent of control at 10^−7 M was from 40% to 60% or the value of IC′50 was from 50 nM to 200 nM.).
Take `CN(C)c1nc(N[C@H]2CC[C@@H](NC(=O)C3CCCC3)CC2)nc2c1CCCC2` [compound 561]: under setting [5], the class was 3 (Class 3 The value of percent of control at 10^−7 M was more than 60% or the value of IC50 was more than 200 nM.).
Consider `CN(C)c1nc(N[C@H]2CC[C@@H](NC(=O)OCC3c4ccccc4-c4ccccc43)CC2)nc2c1CCCC2` [compound 1597], for which the class under setting [6] is recorded as 3 (Class 3 The value of percent of control at 10^−7 M was more than 60% or the value of IC50 was more than 200 nM.).
`CN(C)c1nc(N[C@H]2CC[C@@H](NC(=S)NC3CC4C=CC3C4)CC2)nc2c1CCCC2` (relative stereo) [compound 2067]: the class under setting [1] is 3 (Class 3 The value of percent of control at 10^−7 M was more than 60% or the value of IC50 was more than 200 nM.).
As for `CN(C)c1ccnc(N[C@H]2CC[C@@H](NC(=O)CCCc3ccc([N+](=O)[O-])cc3)CC2)n1` [compound 864, N-(cis-4-{[4-(dimethylamino)pyrimidin-2-yl]amino}cyclohexyl)-4-(4-nitrophenyl)butanamide], the class under setting [2] is 2 (Class 2: The value of percent of control at 10^−7 M was from 40% to 60% or the value of IC′50 was from 50 nM to 200 nM.).
Take `CN(C)c1cc(N[C@H]2CC[C@@H](NC(=O)c3ccc(F)c(Cl)c3F)CC2)nc2ccccc12` [compound 62, 3-chloro-N-(cis-4-{[4-(dimethylamino)quinolin-2-yl]amino}cyclohexyl)-2,4-difluorobenzamide]: under setting [1], the class is 2 (Class 2: The value of percent of control at 10^−7 M was from 40% to 60% or the value of IC′50 was from 50 nM to 200 nM.).
As for `CN(C)c1cc(N[C@H]2CC[C@@H](CNCc3ccc(CO)o3)CC2)nc2ccccc12` [compound 1155], under setting [2], the class is recorded as 3 (Class 3 The value of percent of control at 10^−7 M was more than 60% or the value of IC50 was more than 200 nM.).
Same read-out and setting: under `CN(C)c1ccnc(N[C@H]2CC[C@@H](NC(=O)c3cccc(Cl)c3)CC2)n1` [compound 242] stands 1 (Class 1: The value of percent of control at 10^−7 M was less than 40% or the value of IC50 was less than 50 nM.).
With `CN(C)c1nc(N[C@H]2CC[C@@H](NC(=O)c3cccc(C(F)(F)F)c3F)CC2)nc2c1CCCC2` [compound 500], the class under setting [5] is reported as 3 (Class 3 The value of percent of control at 10^−7 M was more than 60% or the value of IC50 was more than 200 nM.).
With `Cc1cnc(N[C@H]2CC[C@@H](CNC(=O)c3ccc(Cl)cc3)CC2)nc1N(C)C` [compound 2710, 4-chloro-N-[(cis-4-{[4-(dimethylamino)-5-methylpyrimidin-2-yl]amino}cyclohexyl)methyl]benzamide], the class under setting [3] was 2 (Class 2: The value of percent of control at 10^−7 M was from 40% to 60% or the value of IC′50 was from 50 nM to 200 nM.).
On to `CN(C)c1cc(N[C@H]2CC[C@@H](NC(=S)Nc3ccc(Br)cc3OC(F)(F)F)CC2)nc2ccccc12` [compound 2307], for which the class under setting [4] is reported as 3 (Class 3 The value of percent of control at 10^−7 M was more than 60% or the value of IC50 was more than 200 nM.).
Take `C=CCOC(=O)NC[C@H]1CC[C@@H](Nc2cc(N(C)C)c3ccccc3n2)CC1` [compound 1570]: the class under setting [6] is 3 (Class 3 The value of percent of control at 10^−7 M was more than 60% or the value of IC50 was more than 200 nM.).
As to `Cc1cc(C(=O)N[C@H]2CC[C@@H](Nc3nccc(N(C)C)n3)CC2)c(C(F)(F)F)o1` [compound 288], the class under setting [2] is given as 3 (Class 3 The value of percent of control at 10^−7 M was more than 60% or the value of IC50 was more than 200 nM.).
Same read-out and setting: then `C=CCOc1ccccc1CNC[C@H]1CC[C@@H](Nc2nccc(N(C)C)n2)CC1` [compound 1298], with 1 (Class 1: The value of percent of control at 10^−7 M was less than 40% or the value of IC50 was less than 50 nM.); and `CN(C)c1ccnc(N[C@H]2CC[C@@H](CNCc3ccc(N(C)C)c4ccccc34)CC2)n1` [compound 1281], with 2 (Class 2: The value of percent of control at 10^−7 M was from 40% to 60% or the value of IC′50 was from 50 nM to 200 nM.).
For the molecule `CN(C)c1ccnc(N[C@H]2CC[C@@H](NC(=O)Nc3ccc(C#N)cc3)CC2)n1` [compound 2208], the class under setting [2] is 3 (Class 3 The value of percent of control at 10^−7 M was more than 60% or the value of IC50 was more than 200 nM.).

(Values after patent US20050197350A1, “Novel quinoline, tetrahydroquinazoline, and pyrimidine derivatives and methods of treatment related to the use thereof” (TAISHO PHARMACEUTICAL CO., LTD., priority 2003, published 2005).)
